Assay results reported in article PMC9481570, “A small molecule antagonist of SMN disrupts the interaction between SMN and RNAP II” (Nature Communications, 2022).

Key:
[1] = test system: RNAP II occupancy at ACTB gene; test: RNAP II (POLR2A) ChIP-qPCR along the ACTB gene; type: cell-based, human; conditions: 72 h; for POLR2A ChIP-qPCR, ACTB position 332 / POLR2A ChIP-qPCR, ACTB position 1671 / POLR2A ChIP-qPCR, ACTB position 2911 / POLR2A ChIP-qPCR, ACTB position 3560 / POLR2A ChIP-qPCR, ACTB position 3752 / POLR2A ChIP-qPCR, ACTB position 4657 / POLR2A ChIP-qPCR, ACTB position 5590 / POLR2A ChIP-qPCR, ACTB position -72: HEK293, 20 μM; for occupancy levels of RNAP II at the promoter regions and 3′-end of the ACTB gene: HEK293 cells, 20 µM
Experimental: (§1) ChIP was performed using the EZ-ChIP™ A - Chromatin Immunoprecipitation Kit (Millipore, 17-371) according to the manufacturer’s instruction. Antibodies were used with a range of 1–2 μg, and IgG (Millipore, polyclonal antibody, 12-370) was used as a background control. After immunoprecipitation, genomic DNA was de-crosslinked in ChIP elution buffer containing 5 M NaCl at 65 °C overnight and purified with the Qiaex II kit (Qiagen, 20021), and eluted in water for PCR amplification. Immunoprecipitated and input DNAs were used as templates for qPCR. The qPCR primer sequences for ACTB gene are the same as described earlier[9] and shown in the Supplementary Table 2. For analysis of SMN chemical antagonists, HEK293 cells were treated with DMSO, compound 1 or compound 2 (a final concentration of 20 μM) for 72 h, before processing for ChIP.

[2] = test system: SMN occupancy at ACTB gene; test: SMN ChIP-qPCR along the ACTB gene; type: cell-based, human; conditions: 72 h; for SMN/RNAPII, ACTB position 332 / SMN/RNAPII, ACTB position 1671 / SMN/RNAPII, ACTB position 2911 / SMN/RNAPII, ACTB position 3752 / SMN/RNAPII, ACTB position 4657 / SMN/RNAPII, ACTB position 5590 / SMN/RNAPII, ACTB position -72: HEK293, 20 μM, ChIP-qPCR, DMSO = 1; for occupancy levels of SMN along the ACTB gene: HEK293 cells, 20 µM
Experimental: as §1

[3] = target: T1, SMN-RNAP II (GFP-POLR2D) interaction (Homo sapiens, UniProt Q16637); test: Coimmunoprecipitation of SMN with GFP-POLR2D in HEK293 cells; type: cell-based; conditions: series of concentrations, 72 h
T1 construct: endogenous in cells; host or cells: HEK293
Experimental: HEK293 cells (ATCC, CRL-1573) were grown in DMEM (SLRI media facility) plus 10% FBS (Sigma, F1051). For analysis of SMN chemical antagonists, HEK293 cells were treated with DMSO or a series of concentrations (0, 2, 6, 10, 20, 30, 40, and 80 μM) of compound 1, compound 2 or negative compound 15 for 72 h. CRISPR-mediated SMN1 gene knockout was performed according to our previous study. Briefly, 2 μg of CRISPR/Cas9 plasmid (pCMV-Cas9-GFP), which expresses scrambled guide RNA, or guide RNA that targets the SMN1 gene exon1 (gRNA target sequence: […]) or exon3 (gRNA target sequence: […]) was transfected into HEK293 cells. Cells were sorted by BD FACSAria flow cytometry at Donnelly Center, University of Toronto 24 h after transfection, and single GFP-positive cells were seeded into a 48-well plate. The expression levels of SMN in each clone were detected by immunofluorescence. The transfection of GFP-RNase H1 R-loop-binding domain (GFP-HB) for R-loop detection into HEK293 cells was performed with the FuGENE Transfection reagent (Roche, E269A).
The experiments were performed following procedure as previously described with minor modifications. […]

T1 sequence (Q16637 2-294 limits assumed): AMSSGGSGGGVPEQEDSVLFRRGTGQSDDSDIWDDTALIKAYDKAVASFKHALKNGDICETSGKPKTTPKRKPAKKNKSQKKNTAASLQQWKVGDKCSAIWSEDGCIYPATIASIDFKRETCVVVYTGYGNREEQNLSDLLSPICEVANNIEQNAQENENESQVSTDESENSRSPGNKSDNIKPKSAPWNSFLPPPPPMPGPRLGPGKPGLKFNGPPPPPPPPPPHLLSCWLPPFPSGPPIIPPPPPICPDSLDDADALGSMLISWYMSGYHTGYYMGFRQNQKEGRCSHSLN

Structure (SMILES)	POLR2A ChIP-qPCR, ACTB position 332 [1]	POLR2A ChIP-qPCR, ACTB position 1671 [1]	POLR2A ChIP-qPCR, ACTB position 2911 [1]	POLR2A ChIP-qPCR, ACTB position 3560 [1]	POLR2A ChIP-qPCR, ACTB position 3752 [1]	POLR2A ChIP-qPCR, ACTB position 4657 [1]	POLR2A ChIP-qPCR, ACTB position 5590 [1]	POLR2A ChIP-qPCR, ACTB position -72 [1]	occupancy levels of RNAP II at the promoter regions and 3′-end of the ACTB gene [1]	SMN/RNAPII, ACTB position 332 [2]	SMN/RNAPII, ACTB position 1671 [2]	SMN/RNAPII, ACTB position 2911 [2]	SMN/RNAPII, ACTB position 3752 [2]	SMN/RNAPII, ACTB position 4657 [2]	SMN/RNAPII, ACTB position 5590 [2]	SMN/RNAPII, ACTB position -72 [2]	occupancy levels of SMN along the ACTB gene [2]	coimmunoprecipitation of SMN with GFP fusion protein of POLR2D [3]
Cn1c2c(c(=N)c3c1CCC3)CCC2 [Compound 1, 4-methyl-2,3,4,5,6,7-hexahydrodicyclopenta[b,e]pyridin-8(1H)-imine]	0.1628	0.1331	0.08894	0.1246	0.2307	0.1056	0.1381	0.4274	significantly increased	0.6623	0.139	0.1085	0.1464	0.1588	0.03323	0.2631	significantly reduced	inhibited
CCCn1c2c(c(=N)c3c1CCC3)CCC2 [Compound 2, 4-propyl-2,3,4,5,6,7-hexahydrodicyclopenta[b,e]pyridin-8(1H)-imine]	0.1333	0.1287	0.06481	0.09661	0.2124	0.1677	0.1104	0.5589	significantly increased	0.5015	0.45	0.3355	0.2279	0.35	0.2022	0.3107	significantly reduced	inhibited
